According to patent US6444850B1, “Fungicidial compounds having a fluorovinyloxphyenyl moiety and process for the preparation thereof” (priority 1997, dated 2002):

Columns and labels:
Puccinia recondita = assay: Fungicidal activity against wheat leaf rust (WLR) disease; assay type: in vivo; conditions: for C. V. (%), Fungicidal Activities against WLB at 10 ppm: Table 8 (Test Example 5); for C. V. (%) WLR: 50 ppm, control value, wheat leaf rust
Rhizoctonia solani AG-1 = assay: Fungicidal activity against rice sheath blight (RSB) disease; conditions: 50 ppm, control value
Experimental: 50 ml of the resulting solution was sprayed on leaves of a host plant. The plant was kept at room temperature for 24 hours to let the solvent evaporate, and then, a pathogenic fungus was inoculated thereonto. The plant was held in a humidity chamber for 24 hours, transferred to an plant growth room kept at 20 to 27° C. and a relative humidity of 60 to 80% and kept to induce disease. Subsequently, the lesion area(L.A.) attacked by the pathogenic fungus was measured according to a method of Cho(Cho, K. Y., Search Report by Korea Research Institute of Chemical Technology (1989))”. This procedure was repeated twice for each test. 10% Acetone solution containing 250 ppm of Tween-20 was used as a control.
The fungicidal activity of the compound of the present invention is repressed by a control value (C.V.) calculated as; [formula]
Rhizoctonia solani AG-1 was cultured on a PDA medium(potato 200 g, dextrose 20 g, agar 20 g and distilled water 1 l) for 3 days and the agar disc (diameter 0.6 cm) was inoculated and cultured on sterilized wheat bran medium in a 1 l bottle at 26 to 28° C. for 7 days. A mycelial mass was ground using a homogenizer, inoculated uniformly on soil of a pot wherein a Nakdong rice plant having 2 or 3 leaves and an height of 5 cm grew, and kept in humidity polyvinyl chamber for 5 days to induce RSB. L.A. on a leaf sheath was measured to calculate an C.V.

Phytophthora infestans = assay type: in vivo; conditions: 50 ppm; control value, tomato late blight
Erysiphae graminis = assay: Fungicidal activity against barley powdery mildew (BPM) disease; assay type: in vivo; conditions: for C. V. (%), Fungicidal activities against TLB at 10 ppm: Table 9 (Test Example 6); for C. V. (%) BPM: 50 ppm, control value, barley powdery mildew
[1] = system: Pyricularia oryzae Carvara KA301; assay type: in vivo; conditions: for C. V. (%) Fungicidal Activities against RCB at 10 ppm / C. V. (%) Fungicidal Activities against RCB at 10 ppm (TABLE 6): sprayed on Nakdong rice plant, control value from lesion area; for C. V. (%) RCB: 50 ppm, control value, rice blast
Botrytis cinerae = assay: Fungicidal activity against cucumber gray mold rot (CGM) disease; assay type: in vivo; conditions: 50 ppm, control value

Row | SMILES | C. V. (%), Fungicidal Activities against WLB at 10 ppm (Puccinia recondita) [%] | C. V. (%) WLR (Puccinia recondita) [%] | C. V. (%) RSB (Rhizoctonia solani AG-1) [%] | C. V. (%) TLB (Phytophthora infestans) [%] | C. V. (%), Fungicidal activities against TLB at 10 ppm (Erysiphae graminis) [%] | C. V. (%) BPM (Erysiphae graminis) [%] | C. V. (%) Fungicidal Activities against RCB at 10 ppm [1] [%] | C. V. (%) Fungicidal Activities against RCB at 10 ppm (TABLE 6) [1] [%] | C. V. (%) RCB [1] [%] | C. V. (%) CGM (Botrytis cinerae) [%]
1 | COC=C(C(=O)OC)c1ccccc1COc1cccc(OC(F)=Cc2cccc(C)c2)c1 [Compound 6] | 91 | 98 | 65 | 86 | 100 | 100 | 96 | 96 | 100 | 41
2 | CCc1ccc(C(=C(F)Oc2cccc(OCc3ccccc3C(=COC)C(=O)NC)c2)C(F)(F)F)cc1 [Compound 59] |  | 0 | 33 | 33 |  | 0 |  |  | 12 | 0
3 | CON=C(C(=O)OC)c1ccccc1COc1cccc(OC(F)=C(c2ccc(C)cc2)C(F)(F)F)c1 [Compound 55] |  | 100 | 30 | 85 | 97 | 100 | 94 | 94 | 100 | 0
4 | CNC(=O)C(=NOC)c1ccccc1COc1cccc(OC(F)=C(c2ccc(C)cc2)C(F)(F)F)c1 [Compound 56] | 100 | 100 | 65 | 48 | 100 | 100 | 92 | 92 | 97 | 0
5 | CNC(=O)C(=NOC)c1ccccc1COc1cccc(OC(F)=C(c2cc(Cl)cc(Cl)c2)C(F)(F)F)c1 [Compound 104] | 100 | 100 | 50 | 0 | 100 | 100 | 98 | 98 | 100 | 0
6 | COC=C(C(=O)OC)c1ccccc1COc1cccc(OC(F)=C(c2cc(Cl)cc(Cl)c2)C(F)(F)F)c1 [Compound 102] |  | 96 | 45 | 3 | 98 | 100 |  |  | 0 | 0
7 | CNC(=O)C(=COC)c1ccccc1COc1cccc(OC(F)=C(c2cccc(Cl)c2)C(F)(F)F)c1 [Compound 85] |  | 73 | 10 | 22 |  | 0 |  |  | 16 | 16
8 | CON=C(C(=O)OC)c1ccccc1COc1cccc(OC(F)=C(c2ccc3c(c2)OCO3)C(F)(F)F)c1 [Compound 82] | 96 | 98 | 45 | 0 | 97 | 100 |  |  | 50 | 0
9 | CCOc1ccc(C(=C(F)Oc2cccc(OCc3ccccc3C(=NOC)C(=O)OC)c2)C(F)(F)F)cc1 [Compound 79] | 96 | 100 | 55 | 18 | 99 | 100 |  |  | 0 | 7
10 | CCOc1ccc(C(=C(F)Oc2cccc(OCc3ccccc3C(=NOC)C(=O)NC)c2)C(F)(F)F)cc1 [Compound 80] | 100 | 100 | 0 | 0 | 100 | 100 | 95 | 95 | 100 | 0
11 | CNC(=O)/C(=C/OC)c1ccccc1COc1cccc(OC(F)=C(c2cc(C)cc(C)c2)C(F)(F)F)c1 [Compound 68] |  | 56 | 0 | 22 |  | 0 |  |  | 0 | 0
12 | CCc1ccc(C(=C(F)Oc2cccc(OCc3ccccc3C(=NOC)C(=O)OC)c2)C(F)(F)F)cc1 [Compound 60] | 93 | 98 | 40 | 18 | 97 | 100 |  |  | 0 | 0
13 | COC=C(C(=O)OC)c1ccccc1COc1cccc(OC(F)=Cc2cccc(OC)c2)c1 [Compound 25] | 99 | 100 | 92 | 43 | 91 | 98 | 95 | 95 | 95 | 0
14 | CNC(=O)C(=COC)c1ccccc1COc1cccc(OC(F)=C(c2ccc(C)cc2)C(F)(F)F)c1 [Compound 54] |  | 16 | 20 | 20 |  | 41 |  |  | 16 | 9
15 | COC(=O)C(=CSC)c1ccccc1COc1cccc(OC(F)=C(c2ccc(C)cc2)C(F)(F)F)c1 [Compound 57] |  | 96 | 45 | 40 |  | 98 |  |  | 53 | 9
16 | CNC(=O)C(=COC)c1ccccc1COc1cccc(OC(F)=C(c2ccc(Br)cc2)C(F)(F)F)c1 [Compound 101] |  | 73 | 10 | 3 |  | 0 |  |  | 0 | 21
17 | CON=C(C(=O)OC)c1ccccc1COc1cccc(OC(F)=Cc2cccc(C)c2)c1 [Compound 8] | 90 | 98 | 92 | 92 | 93 | 97 | 90 | 90 | 100 | 51
18 | CON=C(C(=O)OC)c1ccccc1COc1cccc(OC(F)=C(c2ccc(F)cc2)C(F)(F)F)c1 [Compound 98] | 96 | 100 | 65 | 25 | 98 | 100 |  |  | 33 | 0
19 | CON=C(C(=O)OC)c1ccccc1COc1cccc(OC(F)=Cc2cc(C)cc(C)c2)c1 [Compound 19] |  | 100 | 90 | 33 |  | 98 |  |  | 100 | 0
20 | CNC(=O)C(=COC)c1ccccc1COc1cccc(OC(F)=Cc2ccc(C)cc2)c1 [Compound 11] |  | 43 | 5 | 20 |  | 25 |  |  | 16 | 15
